Laboratory results from patent US6566120B2 (Massachusetts Institute of Technology, priority 1995, dated 2003).
Where two headings read alike, the source gives them in different places.

Tests used:
[1] = tested on: Actinomadura hydroxylase; assay: Effect of various factors on conversion of compactin to pravastatin in cell free extracts of Actinomadura; format: biochemical, Actinomadura ATCC 55678; settings: for CP: compactin remaining
[2] = tested on: Actinomadura hydroxylase; assay: Conversion of compactin to pravastatin by cell free extracts of Actinomadura: NADH versus NADPH as H+ donor; format: biochemical, Actinomadura ATCC 55678; settings: for PV: 160 μl cell free extract, 0.26 mM H+ donor, 0.23 mM compactin, 30° C.
Method: The HPLC conditions used were a 3 μm Lichrospher 100 RP-18 column (obtained from EM Separations Technology, Gibbstown, N.J.); Mobile Phase A: 2.5 g NaH2PO4 in 800 ml Milli-Q water, add 200 ml acetonitrile and 110 ml methanol, adjust pH to 2.5 with 85% H3PO4; Mobile Phase B: mixture of 200 ml water, 800 ml acetonitrile, 110 ml methanol and 1 ml 85% H3PO4; a 10 μl injection volume; a 1 ml/min. flow rate; and detection at UV 237 nm. The gradient table was: A cell free extract of Actinomadura was obtained by growing a 150 ml culture of Actinomadura ATCC 55678 for 2 days in YM medium as described in Example 1. The cells were harvested by centrifugation at 15,000 rpm for 30 min. […] Cells were harvested by centrifugation, washed twice with cold water and once with buffer A ([…] Tris-HCl buffer, pH 7.4, supplemented with 20% glycerol and 2 mM DTT). The cells were resuspended in 5 ml buffer A and stored at −80° C. The cell suspension was later thawed and disrupted in a French Press. The homogenate was centrifugated at 30,000 rpm for 60 min. The supernatant was stored at −80° C. as cell free extract. […] A control of buffer A without cell free extract was included. The amount of pravastatin was measured by HPLC as described in Example 1.

[3] = target: T1, 3-hydroxy-3-methylglutaryl (HMG)-CoA reductase (Homo sapiens, UniProt P04035); settings: have been reported; cited from earlier work
T1 sequence (P04035 1-888): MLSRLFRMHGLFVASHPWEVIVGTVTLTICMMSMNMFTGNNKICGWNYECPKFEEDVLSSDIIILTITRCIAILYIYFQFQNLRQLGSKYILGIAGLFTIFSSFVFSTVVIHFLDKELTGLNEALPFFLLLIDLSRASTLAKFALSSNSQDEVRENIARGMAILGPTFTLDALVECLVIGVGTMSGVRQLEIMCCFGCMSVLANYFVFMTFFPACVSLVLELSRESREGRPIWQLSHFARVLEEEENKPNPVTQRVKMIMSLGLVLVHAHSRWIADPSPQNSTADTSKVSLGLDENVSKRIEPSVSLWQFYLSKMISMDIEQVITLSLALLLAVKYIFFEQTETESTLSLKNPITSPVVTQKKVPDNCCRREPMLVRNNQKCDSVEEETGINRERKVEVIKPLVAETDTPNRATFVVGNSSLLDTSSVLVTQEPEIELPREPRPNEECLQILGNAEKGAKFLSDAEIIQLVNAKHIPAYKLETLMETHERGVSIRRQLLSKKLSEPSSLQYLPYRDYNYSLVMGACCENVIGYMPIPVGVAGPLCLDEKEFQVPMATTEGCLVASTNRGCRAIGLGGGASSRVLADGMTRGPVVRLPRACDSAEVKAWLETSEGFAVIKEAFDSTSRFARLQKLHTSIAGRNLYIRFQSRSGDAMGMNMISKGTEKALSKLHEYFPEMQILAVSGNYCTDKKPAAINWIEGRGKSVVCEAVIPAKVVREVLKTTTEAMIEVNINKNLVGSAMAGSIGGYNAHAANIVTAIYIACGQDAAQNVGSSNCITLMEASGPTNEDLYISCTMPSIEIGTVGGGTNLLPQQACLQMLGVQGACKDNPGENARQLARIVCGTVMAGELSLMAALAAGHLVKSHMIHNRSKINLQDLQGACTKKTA

[4] = tested on: blood cholesterol level; assay: Treating high blood cholesterol levels; format: in vivo; settings: human patient; 20 mg orally, pill, twice a day, 3 months
Method: This example illustrates a method for lowering the cholesterol level in a human with pravastatin derived from an Actinomadura hydroxylase that converts compactin to pravastatin. The patient is given 20 mg of this pravastatin orally, in the form of a pill, twice a day. Administration is carried out for a period of 3 months.

[5] = tested on: fungi; settings: Serizawa et al., J. Antibiotics 36:887-891 (1983); cited from earlier work
[6] = tested on: strain 2966; assay: Antibiotic sensitivity of strain 2966 (taxonomic description); format: cell-based, Actinomadura
Description: Description of strain 2966: Cell wall analysis: Whole cell hydrolysates contain meso-diaminopimelic acid (DAP) and madurose. Morphology: Strain 2966 produces an extensively branched, non-fragmenting and dense substrate mycelium. The aerial mycelium is very well developed on yeast malt extract agar, oatmeal agar, N-Z Amine with soluble starch and glucose agar and absent on ISP-4, ISP-5 and ISP-7 media. Spore chains noticeably exceed the diameter of the hyphae which is characteristic for Actinomadura strains and distinguish them from Streptomyces. The presence of meso-DAP is another distinguishing feature. Spores of strain 2966 have a round shape unlike glycomyces species. No special morphological structures were observed either on the substrate mycelium or aerial mycelium. The color of the aerial mycelium is white and yellow-brown for substrate mycelium. No soluble or melanin pigments are formed. Mycelium is not sensitive to pH changes. Carbon source utilization is very poor for glucose, arabinose, D-fructose, D-mannitol, raffinose, rhamnose, sucrose, xylose, galactose and there is only a trace of growth with i-inositol, salicin or on control agar. […] Of the meso-DAP-containing actinomycetes, only Actinomadura species have non-fragmenting mycelium and display the same type of aerial mycelium formation and sporulation as strain 2966.

[7] = Actinomadura cell free extracts, alone or in combination
[8] = Table 10, CFE Uninduced, combination MgCl2 2.4 mM, ATP 1.9 mM, ascb 12 mM, ATP alone 3.8 mM, ascb alone 23 mM
[9] = Table 9, 60 min, 0.72 mM NADPH, 0.2 mM compactin, 2.4 mM MgCl2, 0.09 mM FeSO4, 0.1 mM FeCl3, 1.9 mM ATP and 12 mM ascorbic acid
[10] = Table 9, 60 min, 0.72 mM NADPH, 0.2 mM compactin, same factor concentrations

Nc1ncnc2c1ncn2[C@@H]1O[C@H](COP(=O)(O)OP(=O)(O)OP(=O)(O)O)[C@@H](O)[C@H]1O [ATP]
stimulation of the enzymatic activity of the agent (conversion of compactin to pravastatin) [1, 7]: stimulate conversion of compactin to pravastatin | PV (μg/min/g) [1, 8]: 17 µg/min/g | PV (μg/ml) [1, 8]: 7.5 µg/mL

[Cl-].[Cl-].[Co+2] [CoCl2]
stimulation of the enzymatic activity of the agent (conversion of compactin to pravastatin) [1]: do not stimulate enzymatic activity

O=S(=O)([O-])[O-].[Cu+2] [CuSo4]
stimulation of the enzymatic activity of the agent (conversion of compactin to pravastatin) [1, 7]: do not stimulate enzymatic activity

Cc1cc2nc3c(=O)[nH]c(=O)nc-3n(C[C@H](O)[C@H](O)[C@H](O)COP(=O)(O)OP(=O)(O)OC[C@H]3O[C@@H](n4cnc5c(N)ncnc54)[C@H](O)[C@@H]3O)c2cc1C [FAD]
stimulation of the enzymatic activity of the agent (conversion of compactin to pravastatin) [1]: do not stimulate enzymatic activity

Cc1cc2nc3c(=O)[nH]c(=O)nc-3n(C[C@H](O)[C@H](O)[C@H](O)COP(=O)(O)O)c2cc1C [FMN]
stimulation of the enzymatic activity of the agent (conversion of compactin to pravastatin) [1]: do not stimulate enzymatic activity

[Cl][Fe]([Cl])[Cl] [FeCl3]
PV (μg/ml) [1, 9]: 3.3 µg/mL | PV (μg/min/g) [1, 10]: 6.6 µg/min/g | CP [1, 10]: 57.9 µg/mL

O=S(=O)([O-])[O-].[Fe+2] [FeSO4]
PV (μg/ml) [1, 9]: 2.3 µg/mL | PV (μg/min/g) [1, 10]: 6.4 µg/min/g | CP [1, 10]: 64.3 µg/mL

[Cl-].[Cl-].[Mg+2] [MgCl2]
stimulation of the enzymatic activity of the agent (conversion of compactin to pravastatin) [1, 7]: stimulate conversion of compactin to pravastatin | PV (μg/ml) [1, 9]: 4.4 µg/mL | PV (μg/min/g) [1, 10]: 8.7 µg/min/g | CP [1, 10]: 60.2 µg/mL

NC(=O)C1=CN([C@@H]2O[C@H](COP(=O)(O)OP(=O)(O)OC[C@H]3O[C@@H](n4cnc5c(N)ncnc54)[C@H](O)[C@@H]3O)[C@@H](O)[C@H]2O)C=CC1 [NADH]
PV ([2]; 5 hours): 2.8 µg/mL | PV ([2]; 21 hours): 2.8 µg/mL

NC(=O)C1=CN([C@@H]2O[C@H](COP(=O)(O)OP(=O)(O)OC[C@H]3O[C@@H](n4cnc5c(N)ncnc54)[C@H](OP(=O)(O)O)[C@@H]3O)[C@@H](O)[C@H]2O)C=CC1 [NADPH]
PV ([2]; 6 hours): 12.8 µg/mL | PV ([2]; 21 hours): 11.9 µg/mL | enzymatic conversion of compactin to pravastatin, comparison of H+ donors ([2]; cell free extracts): better with NADPH as a H^+ donor than with NADH

[Cl][Ni][Cl] [NiCl2]
stimulation of the enzymatic activity of the agent (conversion of compactin to pravastatin) [1, 7]: do not stimulate enzymatic activity

O=C1O[C@H]([C@@H](O)CO)C(O)=C1O [ascb, ascorbic acid]
stimulation of the enzymatic activity of the agent (conversion of compactin to pravastatin) [1, 7]: stimulate conversion of compactin to pravastatin | PV (μg/min/g) [1, 8]: 18 µg/min/g | PV (μg/ml) [1, 8]: 8.3 µg/mL

CC[C@H](C)C(=O)O[C@H]1C[C@H](O)C=C2C=C[C@H](C)[C@H](CC[C@@H](O)C[C@@H](O)CC(=O)O)[C@H]21 [pravastatin]
inhibition of HMG-CoA reductase [3]: competitive inhibitors | blood cholesterol level [4]: reduction of the patient's blood cholesterol level

O=C(O)CCC(=O)C(=O)O [∝-ketoglutarate]
stimulation of the enzymatic activity of the agent (conversion of compactin to pravastatin) [1, 7]: do not stimulate enzymatic activity

compactin
activity against fungi [5]: anti-fungal activity

neomycin
sensitivity of strain 2966 to antibiotic [6]: inhibited

penicillin
sensitivity of strain 2966 to antibiotic [6]: resistance
